Experimental data taken from ChEMBL document CHEMBL1138894, “Synthesis and biological investigation of S-aryl-S-DABO derivatives as HIV-1 inhibitors” (Bioorg Med Chem Lett, 2006).
Activity calls are given as the source filed them. The rule behind the calls is not given here.

Key:
[1] = tested on: Human immunodeficiency virus type 1 reverse transcriptase (Human immunodeficiency virus 1), Q72547 [K103N]; assay: Inhibition of HIV1 reverse transcriptase K103N mutant at 400uM
[2] = tested on: Human immunodeficiency virus type 1 reverse transcriptase (Human immunodeficiency virus 1), Q72547 [Y181I]; assay: Inhibition of HIV1 reverse transcriptase Y181I mutant at 400uM
MT4 = assay: Cytotoxicity against MT4 cells by MTT assay; assay type: functional; settings: Homo sapiens
[3] = target: Human immunodeficiency virus type 1 reverse transcriptase (Human immunodeficiency virus 1) (UniProt Q72547); assay: Selectivity index (CC50/EC50); assay type: functional
[4] = target: Human immunodeficiency virus type 1 reverse transcriptase (Human immunodeficiency virus 1) (UniProt Q72547)
[5] = target: Human immunodeficiency virus type 1 reverse transcriptase (Human immunodeficiency virus 1) (UniProt Q72547); assay: Inhibition of wild type HIV1 reverse transcriptase at 400uM

For `Cc1c(O)nc(Sc2ccccc2)nc1Cc1c(F)cccc1F`, which Activity [1] is on record?
The Activity was “inactive”.

What about the Activity [2] of the same compound?
The Activity was “inactive”.

What about the CC50 (MT4) of the same compound?
The CC50 was over 72.7 µM.

What about the Selectivity index [3] of the same compound?
The Selectivity index was over 835.

And the ID50 [4]?
Its ID50 is 32 µM.

Which Activity [1] does the source give for `Cc1c(O)nc(Sc2ccc(Cl)cc2)nc1Cc1c(F)cccc1F` here?
The Activity was “inactive”.

What about the Activity [2] of the same compound?
Its Activity is “inactive”.

And the CC50 (MT4)?
Its CC50 is over 66.1 µM.

What about the ID50 [4] of the same compound?
Its ID50 is 22 µM.

What does the source list for `COc1ccc(Sc2nc(O)c(C)c(Cc3c(F)cccc3F)n2)cc1`?
Activity [1]: inactive; Activity [2]: inactive; CC50 (MT4): 57.5 µM; Activity [5]: inactive

`Cc1ccnc2c1NC(=O)c1cccnc1N2C1CC1` [NEVIRAPINE] was tested. Which CC50 (MT4) did it give?
Its CC50 is over 7.5 µM.

Which results are given for `COc1ccc(Sc2nc(O)c(C)c(Cc3c(Cl)cccc3Cl)n2)cn1`?
Activity [1]: inactive; Activity [2]: inactive; CC50 (MT4): > 61.3 µM; ID50 [4]: 3.5 µM

Which CC50 (MT4) does the source give for `O=C1Nc2ccc(Cl)cc2C(C#CC2CC2)(C(F)(F)F)O1` (single isomer, unassigned) [EFAVIRENZ] here?
The CC50 was over 0.32 µM.

What does the source list for `Cc1c(O)nc(Sc2ccc(F)cc2F)nc1Cc1c(F)cccc1F`?
Activity [1]: inactive; Activity [2]: inactive; CC50 (MT4): > 65.8 µM; ID50 [4]: 30 µM

With `Cc1c(O)nc(Sc2ccc(F)cc2F)nc1Cc1c(Cl)cccc1Cl` as the compound, how does the Activity [1] read?
The Activity was “inactive”.

What about the Activity [2] of the same compound?
The Activity was “inactive”.

And the CC50 (MT4)?
The CC50 was over 60.5 µM.

And the ID50 [4]?
The ID50 was 10 µM.

Which Activity [1] does the source give for `Cc1c(O)nc(Sc2ccccc2)nc1Cc1c(Cl)cccc1Cl` here?
Its Activity is “inactive”.

What about the Activity [2] of the same compound?
The Activity was “inactive”.

And the CC50 (MT4)?
Its CC50 is over 66.3 µM.

And the ID50 [4]?
The ID50 was 36 µM.

Which results are given for `Cc1c(O)nc(Sc2ccc(C#N)cc2)nc1Cc1c(Cl)cccc1Cl`?
Activity [1]: inactive; Activity [2]: inactive; CC50 (MT4): 27.6 µM; ID50 [4]: 23 µM

Which Activity [1] does the source give for `COc1ccc(Sc2nc(O)c(C)c(Cc3c(Cl)cccc3Cl)n2)cc1` here?
Its Activity is “inactive”.

And the Activity [2]?
Its Activity is “inactive”.

What about the CC50 (MT4) of the same compound?
Its CC50 is over 61.4 µM.

What about the Activity [5] of the same compound?
Its Activity is “inactive”.

With `Cc1cn([C@H]2C[C@H](N=[N+]=[N-])[C@@H](CO)O2)c(=O)[nH]c1=O` [ZIDOVUDINE] as the compound, how does the CC50 (MT4) read?
The CC50 was 3.7 µM.
